Assay results taken from ChEMBL document CHEMBL5331074, “Design and synthesis of new adamantyl derivatives as promising antiproliferative agents” (Eur J Med Chem, 2023).
Active and inactive are the calls of the source. No cut-off for these calls is given here.

Columns and labels:
[1] = molecular target: Ectonucleotide pyrophosphatase/phosphodiesterase family member 1 (Homo sapiens, UniProt P22413); assay: Inhibition of human NPP1 expressed in COS-7 cells using pNP-TMP as substrate preincubated for 10 mins followed by substrate addition and measured after 35 mins by microplate reader analysis; assay type: cell-based
[2] = molecular target: Ectonucleotide pyrophosphatase/phosphodiesterase family member 3 (Homo sapiens, UniProt O14638); assay: Inhibition of human NPP3 expressed in COS-7 cells using pNP-TMP as substrate preincubated for 10 mins followed by substrate addition and measured after 35 mins by microplate reader analysis; assay type: cell-based
HT-29 [3] = assay: Cytotoxicity against human HT-29 assessed as cell growth inhibition; assay type: functional, cell-based
HT-29 [4] = assay: Cytotoxicity against human HT-29 assessed as mean growth inhibition; assay type: functional
HL-60(TB) = assay: Cytotoxicity against human HL-60(TB) cells assessed as cell growth inhibition; assay type: functional, cell-based
K562 = assay: Cytotoxicity against human K562 cells assessed as cell growth inhibition; assay type: functional, cell-based
RPMI-8226 = assay: Cytotoxicity against human RPMI-8226 cells assessed as cell growth inhibition; assay type: functional, cell-based
SR = assay: Cytotoxicity against human SR cells assessed as cell growth inhibition; assay type: functional, cell-based
A549 = assay: Cytotoxicity against human A549 cells assessed as cell growth inhibition; assay type: functional, cell-based
HOP-62 = assay: Cytotoxicity against human HOP-62 cells assessed as cell growth inhibition; assay type: functional, cell-based
HOP-92 = assay: Cytotoxicity against human HOP-92 cells assessed as cell growth inhibition; assay type: functional, cell-based
NCI-H226 = assay: Cytotoxicity against human NCI-H226 cells assessed as cell growth inhibition; assay type: functional, cell-based
NCI-H23 = assay: Cytotoxicity against human NCI-H23 cells assessed as cell growth inhibition; assay type: functional, cell-based
NCI-H322M = assay: Cytotoxicity against human NCI-H322M cells assessed as cell growth inhibition; assay type: functional, cell-based
NCI-H460 = assay: Cytotoxicity against human NCI-H460 cells assessed as cell growth inhibition; assay type: functional, cell-based
NCI-H522 = assay: Cytotoxicity against human NCI-H522 cells assessed as cell growth inhibition; assay type: functional, cell-based
COLO 205 = assay: Cytotoxicity against human COLO 205 cells assessed as cell growth inhibition; assay type: functional, cell-based
HCC 2998 = assay: Cytotoxicity against human HCC 2998 cells assessed as cell growth inhibition; assay type: functional, cell-based
HCT-116 = assay: Cytotoxicity against human HCT-116 cells assessed as cell growth inhibition; assay type: functional, cell-based
HCT-15 = assay: Cytotoxicity against human HCT-15 cells assessed as cell growth inhibition; assay type: functional, cell-based
HT-29 [5] = assay: Cytotoxicity against human HT-29 cells assessed as cell growth inhibition; assay type: functional, cell-based
KM12 = assay: Cytotoxicity against human KM12 cells assessed as cell growth inhibition; assay type: functional, cell-based
SW-620 = assay: Cytotoxicity against human SW620 cells assessed as cell growth inhibition; assay type: functional, cell-based
SF-295 = assay: Cytotoxicity against human SF-295 cells assessed as cell growth inhibition; assay type: functional, cell-based
SF-539 = assay: Cytotoxicity against human SF-539 cells assessed as cell growth inhibition; assay type: functional, cell-based
SNB-19 = assay: Cytotoxicity against human SNB-19 cells assessed as cell growth inhibition; assay type: functional, cell-based
SNB-75 = assay: Cytotoxicity against human SNB-75 cells assessed as cell growth inhibition; assay type: functional, cell-based
U-251 = assay: Cytotoxicity against human U-251 cells assessed as cell growth inhibition; assay type: functional, cell-based
LOX IMVI = assay: Cytotoxicity against human LOX IMVI cells assessed as cell growth inhibition; assay type: functional, cell-based
Malme-3M = assay: Cytotoxicity against human Malme-3M cells assessed as cell growth inhibition; assay type: functional, cell-based
M14 = assay: Cytotoxicity against human M14 cells assessed as cell growth inhibition; assay type: functional, cell-based
MDA-MB-435 = assay: Cytotoxicity against human MDA-MB-435 cells assessed as cell growth inhibition; assay type: functional, cell-based
SK-MEL-2 = assay: Cytotoxicity against human SK-MEL-2 cells assessed as cell growth inhibition; assay type: functional, cell-based
SK-MEL-28 = assay: Cytotoxicity against human SK-MEL-28 cells assessed as cell growth inhibition; assay type: functional, cell-based
SK-MEL-5 = assay: Cytotoxicity against human SK-MEL-5 cells assessed as cell growth inhibition; assay type: functional, cell-based
UACC-257 = assay: Cytotoxicity against human UACC-257 cells assessed as cell growth inhibition; assay type: functional, cell-based
UACC-62 = assay: Cytotoxicity against human UACC-62 cells assessed as cell growth inhibition; assay type: functional, cell-based
IGROV-1 = assay: Cytotoxicity against human IGROV-1 cells assessed as cell growth inhibition; assay type: functional, cell-based
OVCAR-4 = assay: Cytotoxicity against human OVCAR-4 cells assessed as cell growth inhibition; assay type: functional, cell-based
OVCAR-5 = assay: Cytotoxicity against human OVCAR-5 cells assessed as cell growth inhibition; assay type: functional, cell-based
OVCAR-8 = assay: Cytotoxicity against human OVCAR-8 cells assessed as cell growth inhibition; assay type: functional, cell-based
NCI/ADR-RES = assay: Cytotoxicity against human NCI/ADR-RES cells assessed as cell growth inhibition; assay type: functional, cell-based
SK-OV-3 = assay: Cytotoxicity against human SK-OV-3 cells assessed as cell growth inhibition; assay type: functional, cell-based
786-0 = assay: Cytotoxicity against human 786-0 cells assessed as cell growth inhibition; assay type: functional, cell-based
A498 = assay: Cytotoxicity against human A498 cells assessed as cell growth inhibition; assay type: functional, cell-based
ACHN = assay: Cytotoxicity against human ACHN cells assessed as cell growth inhibition; assay type: functional, cell-based
RXF 393 = assay: Cytotoxicity against human RXF 393 cells assessed as cell growth inhibition; assay type: functional, cell-based
SN12C = assay: Cytotoxicity against human SN12C cells assessed as cell growth inhibition; assay type: functional, cell-based
TK-10 = assay: Cytotoxicity against human TK-10 cells assessed as cell growth inhibition; assay type: functional, cell-based
UO-31 = assay: Cytotoxicity against human UO-31 cells assessed as cell growth inhibition; assay type: functional, cell-based
PC-3 = assay: Cytotoxicity against human PC-3 cells assessed as cell growth inhibition; assay type: functional, cell-based
DU-145 = assay: Cytotoxicity against human DU-145 cells assessed as cell growth inhibition; assay type: functional, cell-based
MCF7 = assay: Cytotoxicity against human MCF7 cells assessed as cell growth inhibition; assay type: functional, cell-based
MDA-MB-231 = assay: Cytotoxicity against human MDA-MB-231 cells assessed as cell growth inhibition; assay type: functional, cell-based
Hs-578T = assay: Cytotoxicity against human Hs-578T cells assessed as cell growth inhibition; assay type: functional, cell-based
BT-549 = assay: Cytotoxicity against human BT-549 cells assessed as cell growth inhibition; assay type: functional, cell-based
T47D = assay: Cytotoxicity against human T47D cells assessed as cell growth inhibition; assay type: functional, cell-based
MDA-MB-468 = assay: Cytotoxicity against human MDA-MB-468 cells assessed as cell growth inhibition; assay type: functional, cell-based
[6] = Cytotoxicity against human hTERT-HME1 cells assessed as cell growth inhibition; assay type: toxicity, cell-based
[7] = Selectivity index, ratio of IC50 for cytotoxicity against human hTERT-HME1 cells to IC50 for cytotoxicity against human BT-549 cells
Autotaxin = Autotaxin (Homo sapiens, UniProt Q13822); assay: Inhibition of human NPP2 expressed in COS-7 cells using pNP-TMP as substrate preincubated for 10 mins followed by substrate addition and measured after 35 mins by microplate reader analysis; assay type: cell-based
Carbonic anhydrase 9 = Carbonic anhydrase 9 (Homo sapiens, UniProt Q16790)
Description: Inhibition of Carbonic anhydrase 9 (unknown origin) using p-nitrophenyl acetate as substrate preincubated for 10 mins followed by substrate addition and measured after 30 mins by microplate reader method

Sequence of Ectonucleotide pyrophosphatase/phosphodiesterase family member 1 (P22413 whole entry): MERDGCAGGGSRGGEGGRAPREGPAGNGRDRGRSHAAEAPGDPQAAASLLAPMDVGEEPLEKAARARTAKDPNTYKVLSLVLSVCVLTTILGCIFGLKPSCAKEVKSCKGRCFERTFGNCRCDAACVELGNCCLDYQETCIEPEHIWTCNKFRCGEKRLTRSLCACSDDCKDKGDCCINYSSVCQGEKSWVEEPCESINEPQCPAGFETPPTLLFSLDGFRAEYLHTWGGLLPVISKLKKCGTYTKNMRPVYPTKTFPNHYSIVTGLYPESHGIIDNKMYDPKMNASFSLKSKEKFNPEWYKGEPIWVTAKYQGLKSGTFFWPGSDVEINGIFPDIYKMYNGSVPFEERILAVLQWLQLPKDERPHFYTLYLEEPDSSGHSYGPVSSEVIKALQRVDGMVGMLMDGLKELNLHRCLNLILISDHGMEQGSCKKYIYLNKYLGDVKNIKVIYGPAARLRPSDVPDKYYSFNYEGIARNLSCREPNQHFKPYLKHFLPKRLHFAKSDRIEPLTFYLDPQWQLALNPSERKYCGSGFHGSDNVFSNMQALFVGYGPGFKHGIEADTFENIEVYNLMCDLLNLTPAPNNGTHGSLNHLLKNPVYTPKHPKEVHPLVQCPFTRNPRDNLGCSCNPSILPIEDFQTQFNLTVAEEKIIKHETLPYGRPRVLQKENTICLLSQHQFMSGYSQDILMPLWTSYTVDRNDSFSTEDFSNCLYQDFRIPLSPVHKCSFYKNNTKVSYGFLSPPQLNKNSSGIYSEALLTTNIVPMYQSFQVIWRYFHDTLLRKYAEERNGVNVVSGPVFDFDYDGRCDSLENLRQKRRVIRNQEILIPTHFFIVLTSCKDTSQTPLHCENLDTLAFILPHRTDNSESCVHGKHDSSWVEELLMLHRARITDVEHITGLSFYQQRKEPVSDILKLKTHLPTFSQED
Sequence of Ectonucleotide pyrophosphatase/phosphodiesterase family member 3 (O14638 whole entry): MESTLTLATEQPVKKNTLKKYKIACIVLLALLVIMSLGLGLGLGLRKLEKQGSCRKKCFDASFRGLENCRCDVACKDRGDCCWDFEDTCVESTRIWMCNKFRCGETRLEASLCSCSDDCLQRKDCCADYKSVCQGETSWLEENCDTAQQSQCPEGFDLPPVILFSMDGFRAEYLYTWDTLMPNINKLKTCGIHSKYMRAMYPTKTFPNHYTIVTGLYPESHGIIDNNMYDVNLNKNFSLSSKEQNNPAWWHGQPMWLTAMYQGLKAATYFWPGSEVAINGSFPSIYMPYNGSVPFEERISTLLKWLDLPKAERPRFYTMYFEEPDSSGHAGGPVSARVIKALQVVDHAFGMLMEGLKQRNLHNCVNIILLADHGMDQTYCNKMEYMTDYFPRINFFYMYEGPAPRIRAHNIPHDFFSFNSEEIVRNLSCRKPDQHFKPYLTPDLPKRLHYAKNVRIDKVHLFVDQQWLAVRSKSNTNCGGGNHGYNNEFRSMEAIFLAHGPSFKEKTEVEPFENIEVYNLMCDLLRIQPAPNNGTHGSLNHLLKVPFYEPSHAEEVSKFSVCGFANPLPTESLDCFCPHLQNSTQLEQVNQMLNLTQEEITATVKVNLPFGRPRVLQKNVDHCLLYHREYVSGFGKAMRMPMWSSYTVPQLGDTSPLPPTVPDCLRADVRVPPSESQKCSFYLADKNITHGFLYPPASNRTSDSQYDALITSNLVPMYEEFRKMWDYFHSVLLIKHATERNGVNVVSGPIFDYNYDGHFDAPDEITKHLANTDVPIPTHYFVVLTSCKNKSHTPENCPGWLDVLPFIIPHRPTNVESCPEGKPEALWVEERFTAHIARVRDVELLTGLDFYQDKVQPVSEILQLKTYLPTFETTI

O=C(Nc1ccc(OS(=O)(=O)c2ccccc2)cc1)C12CC3CC(CC(C3)C1)C2
IC50 [1]: 1.36 µM | IC50 [2]: 3 µM | inhibition (HT-29 [3]): Active | inhibition (INH) (HT-29 [4]): 85.4% | IC50 (HL-60(TB)): 8.39 µM | IC50 (K562): 0.32 µM | IC50 (RPMI-8226): 0.4 µM | IC50 (SR): 0.58 µM | IC50 (A549): 6.9 µM | IC50 (HOP-62): > 100 µM | IC50 (HOP-92): 1.87 µM | IC50 (NCI-H226): 27.7 µM | IC50 (NCI-H23): 6.68 µM | IC50 (NCI-H322M): > 100 µM | IC50 (NCI-H460): 6.1 µM | IC50 (NCI-H522): 4.36 µM | IC50 (COLO 205): 0.87 µM | IC50 (HCC 2998): 5.48 µM | IC50 (HCT-116): 2.5 µM | IC50 (HCT-15): 1 µM | IC50 (HT-29 [5]): 0.4 µM | IC50 (KM12): 2.1 µM | IC50 (SW-620): 1.97 µM | IC50 (SF-295): 8.27 µM | IC50 (SF-539): 0.96 µM | IC50 (SNB-19): > 100 µM | IC50 (SNB-75): 7.16 µM | IC50 (U-251): 4.81 µM | IC50 (LOX IMVI): 4.38 µM | IC50 (Malme-3M): > 100 µM | IC50 (M14): 7.2 µM | IC50 (MDA-MB-435): > 100 µM | IC50 (SK-MEL-2): > 100 µM | IC50 (SK-MEL-28): > 100 µM | IC50 (SK-MEL-5): 3.12 µM | IC50 (UACC-257): 13.5 µM | IC50 (UACC-62): 6.47 µM | IC50 (IGROV-1): > 100 µM | IC50 (OVCAR-4): 8.38 µM | IC50 (OVCAR-5): > 100 µM | IC50 (OVCAR-8): > 100 µM | IC50 (NCI/ADR-RES): 5.75 µM | IC50 (SK-OV-3): > 100 µM | IC50 (786-0): 3.8 µM | IC50 (A498): 2.04 µM | IC50 (ACHN): > 100 µM | IC50 (RXF 393): 5.12 µM | IC50 (SN12C): > 100 µM | IC50 (TK-10): > 100 µM | IC50 (UO-31): 18.7 µM | IC50 (PC-3): 2.9 µM | IC50 (DU-145): > 100 µM | IC50 (MCF7): 3.26 µM | IC50 (MDA-MB-231): 3.79 µM | IC50 (Hs-578T): 7.29 µM | IC50 (BT-549): 3.24 µM | IC50 (T47D): 3.57 µM | IC50 (MDA-MB-468): 3.8 µM | IC50 [6]: > 50 µM | Ratio IC50 [7]: 15.4 | IC50 (Autotaxin): 1.35 µM | IC50 (Carbonic anhydrase 9): 1.02 µM
